# Assay: Fluoride Uptake Study, FDA monograph evaluation (FDA Method #40)
# Parameters: species or system bovine
# Settings: comparison between formulas, Tables 2 and 3
# Description: Formulas 1 and 2, according to Example 1 above, are assessed by Fluoride Uptake Study, FDA monograph evaluation (FDA Method #40). A Control Formula, Placebo Formula, and USP Toothpaste Standard Formula are also assessed for comparison.
# Sound, upper, central, bovine incisors were selected and cleaned of all adhering soft tissue. A core of enamel 3 mm in diameter was prepared from each tooth by cutting perpendicular to the labial surface with a hollow-core diamond drill bit. This was performed under water to prevent overheating of the specimens. Each specimen was embedded in the end of a plexiglass rod (114″ diameter×2″ long) using methylmethacrylate. […]
# Each enamel specimen was then etched by immersion into 0.5 ml of 1M HC104 for 15 seconds. […] A sample of each solution was then buffered with TISAB to a pH of 5.2 (0.25 ml sample, 0.5 ml TISAB and 0.25 ml IN NaOH) and the fluoride content determined by comparison to a similarly prepared standard curve (1 ml std and 1 ml TISAB). For use in depth of etch calculation, the Ca content of the etch solution was determined by taking 50μl and analyzing for Ca by atomic absorption (0.05 ml qs to 5 ml). […]
# The treatments were performed using supernatants of the dentifrice slurries. […] One layer of enamel was then removed from each specimen and analyzed for fluoride and calcium as outlined above (i.e., 15 second etch). […]
compound,measurement,value
O.O.O.O=C([O-])CC(O)(CC(=O)[O-])C(=O)[O-].O=C([O-])CC(O)(CC(=O)[O-])C(=O)[O-].[Zn+2].[Zn+2].[Zn+2] [zinc citrate trihydrate],"enamel fluoride uptake, comparison in words",will not have a significant negative impact on Enamel Fluoride Uptake
